Measurements published in patent publication US10639345B2, “Compositions for preserving photoreceptor cells, retinal pigment epithelial cells, or visual function” (Massachusetts Eye and Ear Infirmary, priority 2010, dated 2020).
Where a SMILES comes first, the peptide text is derived from it. The star is where a group is joined. Cbz = O=C(OCc1ccccc1)*; CH2F = FC*

Assays:
photoreceptors [1] = test: TEM quantification of apoptotic and necrotic photoreceptor death after retinal detachment; assay type: in vivo; conditions: day three after retinal detachment, ONL
Protocol: The morphology of photoreceptors after retinal detachment was examined by transmission electron microscopy (TEM) and propidium iodide (PI) staining and the effect of treatment with Z-VAD and/or a Nec-1 compound of Formula I-C was analyzed.
TEM was performed as previously described (Hisatomi T et al. (2008). J. CLIN. INVEST. 118:2025-2038). […] Over 200 photoreceptors each eye were photographed and subjected to quantification of cell death modes in a masked fashion. Photoreceptors showing cellular shrinkage and nuclear condensation were defined as apoptotic cells, while photoreceptors associated with cellular and organelle swelling and discontinuities in nuclear and plasma membrane were defined as necrotic cells. The presence of electron-dense granular materials were reported to occur subsequent to both apoptotic and necrotic cell death and cells with these findings were labeled simply as end-stage cell death/unclassified (Hisatomi T et al. (2003) AM. J. PATHOL. 162:1869-1879; Erickson P A et al. (1983) INVEST. OPHTHALMOL. VIS. SCI. 24:927-942).
On day three after retinal detachment, photoreceptor death caused by apoptosis was almost twice that caused by necrosis in vehicle-treated retina (% apoptotic cells: 21.7±1.3%, necrotic cells: 13.3±1.0%, unclassified: 4.4±1.4%; FIGS. 7A and 7E).

photoreceptors [2] = test: In vivo PI labeling of photoreceptors after retinal detachment in RIP-3−/− retinas; design: species or system RIP-3−/− mice; conditions: day 3 after retinal detachment
Protocol: In vivo propidium iodide (PI) staining was performed by injecting 5 μl of PI (50 μg/ml) into the subretinal space three days after retinal detachment. After two hours, the eyes were enucleated and 10 μm thick cryosections were cut, air-dried, and fixed in 100% ethanol. DAPI was used to counterstain the nuclei. The center of the detached retina was photographed by fluorescence microscope, and the number of PI-positive cells in ONL was analyzed by ImageJ software.
FIG. 8C-D show PI staining (FIG. 8C) and quantification of PI-positive photoreceptors (FIG. 8D) on day 3 after retinal detachment in retina treated with vehicle, Z-VAD or Nec-1 (a Nec-1 of Formula I-C) and Z-VAD in RIP-3−/− retina (n=5-6; C and D). *, P<0.05; **, P<0.01. Scale bar, 100 μm.

[3] = test system: CD11b-positive macrophage/microglia; test: CD11b immunohistochemistry after retinal detachment; assay type: in vivo; conditions: day three after retinal detachment
Protocol: Immunohistochemistry (IHC) was performed as previously reported (Murakami Y et al. (2008) AM J PATHOL 173:1326-1338). Rat anti-CD11b antibody (1:50; BD Biosciences, San Diego, Calif.) was used as the primary antibody. The specimens were imaged by confocal microscopy using the Leica HCX APOL40× lens.
Since the release of intracellular content in necrosis results in secondary inflammation, changes in the inflammatory response after retinal detachment were investigated by immunohistochemistry and immunofluorescence with an antibody against CD11b. FIG. 11A-B show IHC for CD11b (FIG. 11A) and quantification of CD11b-positive cells in control retina without retinal detachment and in retina treated with vehicle, Z-VAD or Z-VAD+Nec-1 (n=6 each) (FIG. 11B) at three days after retinal detachment. (*, P<0.05; **, P<0.01; NS, not significant; Scale bar, 50 μm).

Fas-L = test: Fas ligand expression after retinal detachment (real-time PCR); assay type: in vivo; conditions: compared to vehicle treatment
Protocol: Total RNA extraction and reverse transcription were performed as previously reported (Nakazawa T et al. (2006) MOL VIS 12:867-878; Hisatomi T et al. (2008). J CLIN INVEST 118:2025-2038). A real-time PCR assay was performed with Prism 7700 Sequence Detection System (Applied Biosystems, Foster City, Calif.). TaqMan Gene Expression assays were also used to check the expression of MCP-1 (Rn00580555_m1), TNF-α (Rn99999017_m1), and Fas-L (Rn00563754_m1). For relative comparison of each gene, the Ct value of real-time PCR data was analyzed with the ΔΔCt method and normalized by an endogenous control (18S ribosomal RNA).
TNF-α and Fas-L are potent inducer of programmed necrosis as well as apoptosis (Degterev A (2005) NAT CHEM BIOL 1:112-119). The effectiveness of a TNF-α blockade after retinal detachment was measured. […] However, other factors may also contribute to photoreceptor death, as the effect of TNF-α blockade was not as effective as that of Nec-1+Z-VAD treatment. Further, Fas ligand expression increased in Z-VAD-treated retina after retinal detachment compared to vehicle treatment (FIG. 12C), and may play a role in promoting necrotic photoreceptor death in Z-VAD-treated eyes.

photoreceptors [4] = test: Poly I:C-induced dry AMD model, TUNEL-positive cells in ONL; assay type: in vivo, mice; conditions: compared with vehicle
Excerpt: (§1) In this example, the mechanism of photoreceptor cell death in dry AMD was investigated using a polyinosinic:polycytidylic acid (Poly I:C)-induced dry AMD model (Yang et al. (2009) NEJM 359(14):1456-63). Poly I:C is a synthetic double-stranded RNA (dsRNA) analog that activates toll-like receptor 3 (TLR3) signaling (FIG. 20A). Furthermore, dsRNA are known to exist in the drusen of human AMD patients. As depicted in FIG. 20A, activation of the TLR3 signaling results in activation of RIP-1 kinase pathway. […] In the experiments described herein, 2-3 μl of Poly I:C (1 mg/ml) was injected into the subretinal space of the eye (e.g., approximately 2-3 μg of Poly I:C was administered to the eye) to induce AMD.
The thickness of the ONL was determined by the National Institutes of Health ImageJ software. […] Specifically, the number of TUNEL-positive cells in the RIP-3−/− mice treated with poly I:C was at least three fold less than control mice consistent with RIP-3 playing a role in mediating programmed necrosis in AMD (FIG. 22B).
(§2) To determine the effect of Nec-1 and a pan-caspase inhibitor in the treatment of AMD, TUNEL assay was performed to assess photoreceptor cell death in the poly I:C induced AMD model. […] The thickness of ONL was also measured.

photoreceptors [5] = test: Poly I:C-induced dry AMD model, ONL thickness; assay type: in vivo, mice
Excerpt: as §1
The thickness of the outer nuclear layer (ONL) was also determined in WT or RIP-3−/− mice at 14 days following treatment with poly I:C. Sections were randomly selected from either WT or RIP-3−/− mice following poly I:C treatment and the retina was photographed. The ONL thickness was measured in each section by masked observers.
as §2

In the case of COC(=O)CC(NC(=O)C(C)NC(=O)C(NC(=O)OCc1ccccc1)C(C)C)C(=O)CF (stereo not drawn) [Z-VAD, Benzyloxycarbonyl-Val-Ala-Asp(OMe)-fluoromethylketone] (Cbz-Val-Ala-Asp(OMe)-CH2F; configuration not given here), the “% apoptotic cells (TEM)” value (photoreceptors [1]) is reported as 11.4±1.2%, the “% necrotic cells (TEM)” value (photoreceptors [1]) is reported as 21.9±2.3% and the “% unclassified (end-stage cell death, TEM)” value (photoreceptors [1]) is reported as 5.6±1.4%. The “number of photoreceptors with disrupted plasma membrane (in vivo PI-labeling)” value (photoreceptors [2]) was “not increased”, the “infiltration of CD11b-positive cells in the retina” value [3] was 514.7±54.5 cells/mm^2 and the Fas ligand expression (Fas-L) was “increased”. The “number of TUNEL-positive cells in ONL” value (photoreceptors [4]) was “slight effect” and the ONL thickness (photoreceptors [5]) was “minimal effect”.
